Experimental data: patent US9765328B2, “Nuclease-resistant DNA analogues” (Arizona Board of Regents on Behalf of Arizona State …, priority 2014, dated 2017)
Entries after “also recorded” stand apart in the source; their conditions may differ. [FANA-N] = 2'-fluoro-arabino (N: the base); {32P} = 5'-32P radiolabel (phosphate); {FAM} = fluorescein (FAM) label

Columns and labels:
[1] = test system: phosphodiesterase I from Crotalus adamanteus venom
[2] = Chemical stability assay in pepsin-free simulated gastric fluid (SGF); conditions: SGF pH 1.25, 37° C.
Description: Pepsin-free simulated gastric fluid (SGF) was prepared by autoclaving a solution of NaCl (200 mg) in nanopure water (99 mL) followed by addition of 6N HCl (0.7 mL, pH 1.25). TNA (30 pmol), DNA (45 pmol), and RNA (5 pmol) were added to SGF (20 μL) and incubated for the specified time (up to 72 hours). Following the incubation, the reaction mixture was neutralized by the addition of 1N NaOH and the solutions were stored at −20° C. until the time course was complete. The volume was then reduced to 10 μL, mixed with 10 μL of loading buffer (8 M Urea, 5 mM Tris.HCl, 20 mM EDTA, pH 7.5), and the oligonucleotides were analyzed by denaturing PAGE and imaged.
We compared the chemical stability of the all-TNA strand to DNA and RNA oligonucleotides of identical length and similar sequence. […] For these experiments, pepsin-free simulated gastric fluid (SGF, pH 1.25) and 1 M NaOH were used to maintain parity with previous antisense studies^26. For the acidic regime, the TNA, DNA, and RNA samples were incubated in SGF for 72 hours at 37° C.

[3] = Chemical stability assay, alkaline conditions (1 M NaOH); assay type: physicochemical; conditions: 65° C.
Description: The same protocol was used to monitor alkaline stability.

[4] = test system: SVPE; conditions: literature; cited from earlier work

With “5′-Fam-CCCCCCCCCCCC-3′ (5' {FAM}, sugars by position and backbone not given here) [DNA, all-DNA 12mer control]” the “stability against snake venom phosphodiesterase (SVPE)” value [1] was “digested”, the “strand stability in simulated gastric fluid after 72 hours (3 days)” value ([2]; 72 hours) was “stable; also recorded: remained intact” and the “time after which trace amounts of the sample are still visible in 1 M NaOH” value [3] was 12 h.
For “2′-fluoro-arabino nucleic acid (AAAACCCACACCACCA; all [FANA-N], backbone and methylation of C not given here)”, the “degradation in the presence of SVPE” value [4] is given as “degrade in minutes” and the “t1/2 in human serum” value is given as under 3 h.
In the case of “3′-tttCtCtCtCtt-2′ [size-matched TNA/DNA hybrid]”, the “products of SVPE treatment (FIG. 2)” value [1] is reported as “series of shorter truncated products”.
In the case of “5′-32P-UCUCUCUCUCUC-3′ (RNA, 5' {32P}, backbone not given here) [RNA 12mer control]”, the “sample degraded in SGF in the first 12 hours” value ([2]; first 12 hours) is reported as 85% and the “time within which the sample is degraded in 1 M NaOH” value [3] is reported as at most 30 min.
